Blank lines part the entries; values can stand above or below the compound they belong to.
Key:
[1] = tested on: Del19/T790M/C797S EGFR; assay: EGFR degradation HTRF assay in H1975-clone #28 (DTC) cells; assay type: cell-based; details: H1975 # 28 DTC (Del19/T790M/C797S), 16h treatment; for DC50: HTRF; for Dmax (%): maximum percentage of degradation
Summary of the method: (§1)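 Cells carrying only lentiviral mutant EGFR, since endogenous alleles were removed by CRISPR, received compounds on day 2 for 16 h. Final concentrations ran from 10 uM down in 5-fold steps over 8 doses. After lysis, EGFR levels were quantified by HTRF and DC50 derived by curve fitting.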

[2] = target: T1, L858R/T790M/C797S EGFR (Homo sapiens, UniProt P00533, C797S/L858R/T790M); assay: EGFR degradation HTRF assay in H1975-clone #25 (LTC) cells; assay type: cell-based; details: 16h treatment; for DC50: H1975 # 25-LTC (L858R/T790M/C797S), HTRF; for Dmax: NCI-H1975, H1975 # 25-LTC (L858R/T790M/C797S), maximum percentage of degradation
T1 construct: expressed in transfected cells; host or cells: H1975 clone #25 (lentiviral over-expression, endogenous EGFR knocked out by sgRNA)
T1 sequence (P00533 25-1210 T790M/C797S/L858R): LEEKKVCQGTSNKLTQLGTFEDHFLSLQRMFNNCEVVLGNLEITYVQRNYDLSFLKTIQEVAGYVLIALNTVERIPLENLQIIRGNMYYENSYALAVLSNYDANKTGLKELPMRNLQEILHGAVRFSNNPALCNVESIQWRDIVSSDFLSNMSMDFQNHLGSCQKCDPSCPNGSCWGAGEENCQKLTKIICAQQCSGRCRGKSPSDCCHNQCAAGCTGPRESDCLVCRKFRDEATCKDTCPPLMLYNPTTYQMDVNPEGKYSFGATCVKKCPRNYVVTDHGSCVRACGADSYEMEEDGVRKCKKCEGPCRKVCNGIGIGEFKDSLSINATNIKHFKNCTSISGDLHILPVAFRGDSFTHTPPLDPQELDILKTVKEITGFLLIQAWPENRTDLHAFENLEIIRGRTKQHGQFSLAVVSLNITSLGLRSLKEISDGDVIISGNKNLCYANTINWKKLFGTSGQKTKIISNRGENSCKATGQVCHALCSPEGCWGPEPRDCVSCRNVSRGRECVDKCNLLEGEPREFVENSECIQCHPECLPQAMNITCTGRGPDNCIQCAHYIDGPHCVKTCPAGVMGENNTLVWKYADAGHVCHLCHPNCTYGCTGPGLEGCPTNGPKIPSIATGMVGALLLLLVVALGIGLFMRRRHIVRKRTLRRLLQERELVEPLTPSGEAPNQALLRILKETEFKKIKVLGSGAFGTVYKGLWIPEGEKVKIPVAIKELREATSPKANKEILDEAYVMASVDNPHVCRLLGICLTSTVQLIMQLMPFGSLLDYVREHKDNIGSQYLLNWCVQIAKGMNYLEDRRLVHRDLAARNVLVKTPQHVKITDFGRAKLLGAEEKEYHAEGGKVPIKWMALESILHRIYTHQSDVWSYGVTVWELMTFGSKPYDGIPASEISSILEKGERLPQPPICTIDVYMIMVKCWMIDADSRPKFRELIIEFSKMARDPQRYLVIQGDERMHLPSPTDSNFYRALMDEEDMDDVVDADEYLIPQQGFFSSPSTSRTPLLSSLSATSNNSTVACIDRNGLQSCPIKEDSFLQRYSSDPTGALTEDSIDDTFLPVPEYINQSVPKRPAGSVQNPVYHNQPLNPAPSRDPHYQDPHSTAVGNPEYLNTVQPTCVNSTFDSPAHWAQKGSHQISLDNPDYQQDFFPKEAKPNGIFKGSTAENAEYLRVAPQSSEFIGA
Summary of the method: as §1

DC50 [1]: 1.2 nM
DC50 [2]: 1.7 nM
Dmax [2]: 79.1%
SMILES: Cc1cc2cc(n1)-c1cnn(C)c1OCCC[C@@H](C)CN1/C(=N/C2=O)Nc2ccc(CN3CCN(C(=O)[C@@H]4CCN(c5cc(F)c(C6CCC(=O)NC6=O)c(F)c5)C4)[C@H](C)C3)cc21 (stereo partly drawn) [Example 106, (R)-3-(2,6-difluoro-4-((R)-3-((R)-2-methyl-4-(((R,E)-1^1,2^6m7-trimethyl-3-oxo-5^2,5^3-dihydro-1^1H,5^1H -11-oxa-4-aza-5(2,1)-benzo[d]imidazola-2(2,4)-pyridina-1(4,5)-pyrazolacycloundecaphane-5^6-yl)methyl)piperazine-1-carbonyl)pyrrolidin-1-yl)phenyl)piperidine-2,6-dione]
Dmax (%) [1]: 74.4%

DC50 [1]: 1.33 nM
DC50 [2]: 0.71 nM
Dmax [2]: 97.1%
SMILES: Cc1cc2cc(n1)-c1cnn(C)c1OCCC[C@@H](C)CN1/C(=N/C2=O)Nc2ccc(C3CCN(CC4CN(c5cc(F)c([C@H]6CCC(=O)NC6=O)c(F)c5)C4)CC3)cc21 [Example 331, (R)-3-(2,6-difluoro-4-(3-((4-((R,E)-1^1,2^6,7-trimethyl-3-oxo-5^2,53-dihydro-1^1H,5^1H-11-oxa-4-aza-5(2,1)-benzo[d]imidazola-2(2,4)-pyridina-1(4,5)-pyrazolacycloundecaphane-5-yl)piperidin-1-yl)methyl)azetidin-1-yl)phenyl)piperidine-2,6-dione]
Dmax (%) [1]: 73.69%

DC50 [1]: 2.14 nM
DC50 [2]: 0.559 nM
Dmax [2]: 84.5%
SMILES: Cc1cc2cc(n1)-c1cnn(C)c1OCCC[C@@H](C)CN1/C(=N/C2=O)Nc2ccc(N3CCN([C@H]4C[C@@H](Nc5cc(F)c([C@H]6CCC(=O)NC6=O)c(F)c5)C4)CC3)cc21 [Example 445, (R)-3-(2,6-difluoro-4-(((1 S,3S)-3-(4-((R,E)-1^1,2^6,7-trimethyl-3-oxo-5^2,5^3-dihydro-1^1H,5^1H-11-oxa-4-aza-5(2,1)-benzo[d]imidazola-2(2,4)-pyridina-1(4,5)-pyrazolacycloundecaphane-5^6-yl)piperazin-1-yl)cyclobutyl)amino)phenyl)piperidine-2,6-dione]
Dmax (%) [1]: 74.88%

DC50 [1]: 0.725 nM
DC50 [2]: 0.841 nM
Dmax [2]: 89.2%
SMILES: Cc1cc2cc(n1)-c1cnn(C)c1OCCC[C@@H](C)CN1/C(=N/C2=O)Nc2ccc(C(=O)N(C)[C@H]3CCN(CCc4cc(F)c([C@H]5CCC(=O)NC5=O)c(F)c4)[C@H](C)C3)cc21 [Example 259, (R,E)-N—((2R,4S)-1-(4-((R)-2,6-dioxopiperidin-3-yl)-3,5-difluorophenethyl)-2-methylpiperidin-4-yl)-N,1^1,2^6,7-tetramethyl-3-oxo-5^2,5^3-dihydro-1^1H,5^1H-11-oxa-4-aza-5(2,1)-benzo[d]imidazola-2(2,4)-pyridina-1(4,5)-pyrazolacycloundecaphane-5^6-carboxamide]
Dmax (%) [1]: 83.21%

DC50 [1]: 1.77 nM
DC50 [2]: 1.48 nM
Dmax [2]: 79.9%
SMILES: Cc1cc2cc(n1)-c1cnn(C)c1OCCC[C@@H](C)CN1/C(=N/C2=O)Nc2ccc(CC3CCN(C(=O)C4CN(c5cc(F)c([C@H]6CCC(=O)NC6=O)c(F)c5)C4)CC3)cc21 [Example 159, (R)-3-(2,6-difluoro-4-(3-(4-(((R,E)-1^1,2^6,7-trimethyl-3-oxo-5^2,5^3-dihydro-1^1H,5^1H-11-oxa-4-aza-5(2,1)-benzo[d]imidazola-2(2,4)-pyridina-1(4,5)-pyrazolacycloundecaphane-5^6-yl)methyl)piperidine-1-carbonyl)azetidin-1-yl)phenyl)piperidine-2,6-dione]
Dmax (%) [1]: 79.77%

DC50 [1]: 0.836 nM
DC50 [2]: 1.18 nM
Dmax [2]: 84.4%
SMILES: COC[C@H]1CN(C(=O)[C@@H]2CCN(c3cc(F)c([C@H]4CCC(=O)NC4=O)c(F)c3)C2)CCN1Cc1ccc2c(c1)N1C[C@H](C)CCCOc3c(cnn3C)-c3cc(cc(C)n3)C(=O)/N=C/1N2 [Example 194, (R)-3-(2,6-difluoro-4-((R)-3-((R)-3-(methoxymethyl)-4-(((R,E)-1^1,2^6,7-trimethyl-3-oxo-5^2,5^3-dihydro-1^1H,5^1H-11-oxa-4-aza-5(2,1)-benzo[d]imidazola-2(2,4)-pyridina-1(4,5)-pyrazolacycloundecaphane-5′-yl)methyl)piperazine-1-carbonyl)pyrrolidin-1-yl)phenyl)piperidine-2,6-dione]
Dmax (%) [1]: 79.44%

DC50 [1]: 0.814 nM
DC50 [2]: 0.847 nM
Dmax [2]: 85.6%
SMILES: Cc1cc2cc(n1)-c1cnn(C)c1OCCC[C@@H](C)CN1/C(=N/C2=O)Nc2ccc(C(=O)N(C)[C@H]3CCN(CCNc4cc(F)c([C@H]5CCC(=O)NC5=O)c(F)c4)C[C@@H]3F)cc21 [Example 352, (R,E)-N—((3S,4S)-1-(2-((4-((R)-2,6-dioxopiperidin-3-yl)-3,5-difluorophenyl)amino)ethyl)-3-fluoropiperidin-4-yl)-N,1^1,2^6,7-tetramethyl-3-oxo-5^2,5^3-dihydro-1^1H,5^1H-11-oxa-4-aza-5(2,1)-benzo[d]imidazola-2(2,4)-pyridina-1(4,5)-pyrazolacycloundecaphane-5^6-carboxamide]
Dmax (%) [1]: 79.43%

Continued, compound first:

SMILES: Cc1cc2cc(n1)-c1cnn(C)c1OCCC[C@@H](C)CN1/C(=N/C2=O)Nc2ccc(C(=O)N(C)[C@@H]3CCN(CCc4cc(F)c([C@H]5CCC(=O)NC5=O)c(F)c4)CC3(C)C)cc21 [Example 262, (R,E)-N—((R)-1-(4-((R)-2,6-dioxopiperidin-3-yl)-3,5-difluorophenethyl)-3,3-dimethylpiperidin-4-yl)-N,1^1,2^6,7-tetramethyl-3-oxo-5^2,5^3-dihydro-1^1H,5^1H-11-oxa-4-aza-5(2,1)-benzo[d]imidazola-2(2,4)-pyridina-1(4,5)-pyrazolacycloundecaphane-5^6-carboxamide]
DC50 [1]: 0.474 nM
Dmax (%) [1]: 76.44%
DC50 [2]: 0.543 nM
Dmax [2]: 84.2%

SMILES: Cc1cc2cc(n1)-c1cnn(C)c1OCCC[C@@H](C)CN1/C(=N/C2=O)Nc2ccc(C(=O)N(C)C3CCN(CCc4cc(F)c([C@H]5CCC(=O)NC5=O)c(F)c4)CC3(C)C)cc21 (stereo partly drawn) [Example 439, (R,E)-N—((S)-1-(4-((R)-2,6-dioxopiperidin-3-yl)-3,5-difluorophenethyl)-3,3-dimethylpiperidin-4-yl)-N,1^1,2^6,7-tetramethyl-3-oxo-5^2,5^3-dihydro-1^1H,5^1H-11-oxa-4-aza-5(2,1)-benzo[d]imidazola-2(2,4)-pyridina-1(4,5)-pyrazolacycloundecaphane-5^6-carboxamide]
DC50 [1]: 1.52 nM
Dmax (%) [1]: 76.03%
DC50 [2]: 1.4 nM
Dmax [2]: 87.3%

SMILES: Cc1cc2cc(n1)-c1cnn(C)c1OCC[C@H]1C[C@@H]1CN1/C(=N/C2=O)Nc2ccc(N3CCN(C4CCN(c5ccc(C6CCC(=O)NC6=O)nc5C)CC4)CC3)cc21 (stereo partly shown) [Example 465, 3-(5-(4-(4-((7^1S,7^2R,E)-1^1,2^6-dimethyl-3-oxo-5^2,5^3-dihydro-1^1H,5^1H-10-oxa-4-aza-5(2,1)-benzo[d]imidazola-2(2,4)-pyridina-1(4,5)-pyrazola-7(1,2)-cyclopropanacyclodecaphane-5^6-yl)piperazin-1-yl)piperidin-1-yl)-6-methylpyridin-2-yl)piperidine-2,6-dione]
DC50 [1]: 0.319 nM
Dmax (%) [1]: 90.39%
DC50 [2]: 0.472 nM
Dmax [2]: 94.8%

SMILES: Cc1cc2cc(n1)-c1cnn(C)c1OCCC[C@@H](C)CN1/C(=N/C2=O)Nc2cc(F)c(C(=O)N(C)C3CCN(CCc4cc(F)c([C@H]5CCC(=O)NC5=O)c(F)c4)CC3)cc21 [Example 232, (R,E)-N-(1-(4-((R)-2,6-dioxopiperidin-3-yl)-3,5-difluorophenethyl)piperidin-4-yl)-5^5-fluoro-N,1^1,2^6,7-tetramethyl-3-oxo-5^2,5^3-dihydro-1^1H,5^1H-11-oxa-4-aza-5(2,1)-benzo[d]imidazola-2(2,4)-pyridina-1(4,5)-pyrazolacycloundecaphane-5^6-carboxamide]
DC50 [1]: 0.292 nM
Dmax (%) [1]: 82.7%
DC50 [2]: 0.318 nM
Dmax [2]: 92%

SMILES: Cc1cc2cc(n1)-c1cnn(C)c1OCC[C@@H]1C[C@H]1CN1/C(=N/C2=O)Nc2ccc(N3CCN(C4CCN(c5cnc(C6CCC(=O)NC6=O)cc5C)CC4)CC3)cc21 (stereo partly shown) [Example 470, 3-(5-(4-(4-((7^1R,7^2S,E)-1^1,2^6-dimethyl-3-oxo-5^2,5^3-dihydro-1^1H,5^1H-10-oxa-4-aza-5(2,1)-benzo[d]imidazola-2(2,4)-pyridina-1(4,5)-pyrazola-7(1,2)-cyclopropanacyclodecaphane-5^6-yl)piperazin-1-yl)piperidin-1-yl)-4-methylpyridin-2-yl)piperidine-2,6-dione]
DC50 [1]: 0.617 nM
Dmax (%) [1]: 86.76%
DC50 [2]: 0.849 nM
Dmax [2]: 92.1%

SMILES: Cc1cc2cc(n1)-c1c(C)nn(C)c1OCCC[C@@H](C)CN1/C(=N/C2=O)Nc2ccc(C(=O)N(C)C3CCN(CCc4cc(F)c([C@H]5CCC(=O)NC5=O)c(F)c4)CC3)cc21 [Example 233, (R,E)-N-(1-(4-((R)-2,6-dioxopiperidin-3-yl)-3,5-difluorophenethyl)piperidin-4-yl)-N,1^1,1^3,2^6,7-penta methyl-3-oxo-5^2,5^3-dihydro-1^1H,5^1H-11-oxa-4-aza-5(2,1)-benzo[d]imidazola-2(2,4)-pyridina-1(4,5)-pyrazolacycloundecaphane-5^6-carboxamide]
DC50 [1]: 0.806 nM
Dmax (%) [1]: 86.73%
DC50 [2]: 1.05 nM
Dmax [2]: 91.2%

Source: US20240342292A1, “Compounds for the Degradation of EGFR Kinase” (BeiGene Switzerland GmbH, priority 2021, published 2024)
